Data on seven compounds can be found in PubChem BioAssay (NCI).

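Cultured in 96-well plates, cells were exposed to test compound for 48 hours across five concentrations. Definition used: TGI = concentration required for complete inhibition of growth.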

Among the test systems are SNB-75 CNS; SN12C renal; MDA-N; NCI/ADR-RES ovarian; SK-MEL-5 melanoma; A549 NSCLC; HL-60(TB) leukemia; HS 578T breast; BT-549 breast; SR leukemia; COLO 205 colon; EKVX NSCLC; NCI-H23 lung; MCF7 breast; NCI-H226 lung; SK-MEL-2 melanoma; U251 CNS; ACHN renal; HOP-62 NSCLC; IGROV1 ovarian.
Common to all, as to test: inhibition of tumour cell growth, NCI panel, 48 h

As for `Cc1ccc2c(c1)C(=O)C(Cc1ccccc1C(=O)O)C2` (centres undefined), the TGI in the test on SNB-75 CNS, in the test with SN12C renal, with MDA-N, in the test on NCI/ADR-RES ovarian, in the test with SK-MEL-5 melanoma and in the test with A549 NSCLC was > 100 µM in each case. Moreover, the TGI in the test on HL-60(TB) leukemia, in the test on HS 578T breast, with BT-549 breast, in the test with SR leukemia, with COLO 205 colon and in the test with EKVX NSCLC was > 100 µM in each case. The TGI with NCI-H23 lung, in the test on MCF7 breast, in the test with NCI-H226 lung, in the test on SK-MEL-2 melanoma, with U251 CNS and in the test on ACHN renal was > 100 µM in each case. Besides, the TGI in the test on HOP-62 NSCLC and with IGROV1 ovarian was > 100 µM throughout.
In the case of `O=c1c2cc([N+](=O)[O-])ccc2n(Cc2ccccc2)n1Cc1ccccc1`, the TGI in the test with SNB-75 CNS is > 31.6 µM; with SN12C renal it was > 31.6 µM; in the test on MDA-N it was 21.2 µM; with NCI/ADR-RES ovarian it was 20.3 µM; in the test on SK-MEL-5 melanoma, 13.3 µM; in the test on A549 NSCLC, > 31.6 µM. For the same compound, the TGI in the test with HL-60(TB) leukemia is 22.7 µM; in the test with HS 578T breast it was > 31.6 µM; with BT-549 breast, 27 µM; in the test with SR leukemia, > 31.6 µM; in the test on COLO 205 colon, > 31.6 µM; with EKVX NSCLC, > 31.6 µM. The TGI in the test on NCI-H23 lung was > 31.6 µM; with MCF7 breast, 28.6 µM; in the test on NCI-H226 lung, > 31.6 µM; in the test with SK-MEL-2 melanoma it was 20.2 µM; in the test on U251 CNS, > 31.6 µM; in the test on ACHN renal it was > 31.6 µM. Also, the TGI in the test with HOP-62 NSCLC and with IGROV1 ovarian was > 31.6 µM each time.
Regarding `O=S(=O)(N=S(c1ccc(Cl)cc1)c1ccc(Cl)cc1)c1ccccc1`, the TGI with SNB-75 CNS, in the test with SN12C renal, in the test on MDA-N, in the test with NCI/ADR-RES ovarian, with SK-MEL-5 melanoma and in the test on A549 NSCLC was > 100 µM in each case. Further, the TGI in the test on HL-60(TB) leukemia, in the test on HS 578T breast, with BT-549 breast, in the test on SR leukemia, with COLO 205 colon and in the test on EKVX NSCLC was > 100 µM in each case. Also, the TGI in the test on NCI-H23 lung, in the test with MCF7 breast, with NCI-H226 lung, with SK-MEL-2 melanoma, in the test with U251 CNS and with ACHN renal was > 100 µM each time. Moreover, the TGI with HOP-62 NSCLC and in the test with IGROV1 ovarian was > 100 µM each time.
`Cc1cn(C2CC(O)C(Cn3cc(Cn4ncc(=O)[nH]c4=O)nn3)O2)c(=O)[nH]c1=O` (centres undefined): the TGI with SNB-75 CNS, in the test on SN12C renal, in the test with MDA-N, in the test with NCI/ADR-RES ovarian, in the test with SK-MEL-5 melanoma and with A549 NSCLC was > 100 µM throughout. For the same compound, the TGI with HL-60(TB) leukemia, in the test on HS 578T breast, in the test on BT-549 breast, with SR leukemia, in the test with COLO 205 colon and in the test with EKVX NSCLC was > 100 µM throughout. Also, the TGI in the test on NCI-H23 lung, with MCF7 breast, in the test with NCI-H226 lung, with SK-MEL-2 melanoma, in the test on U251 CNS and with ACHN renal was > 100 µM throughout. Besides, the TGI in the test on HOP-62 NSCLC and in the test on IGROV1 ovarian was > 100 µM each time.
As to `c1ccc(C2C3=C(CCCC3)Nc3nc4cc5ccccc5cc4n32)cc1` (centres undefined), the TGI in the test on SNB-75 CNS, in the test on SN12C renal, with MDA-N, with NCI/ADR-RES ovarian, with SK-MEL-5 melanoma and in the test on A549 NSCLC was > 100 µM throughout. The TGI in the test on HL-60(TB) leukemia, with HS 578T breast, with BT-549 breast, in the test on SR leukemia, with COLO 205 colon and in the test on EKVX NSCLC was > 100 µM each time. For the same compound, the TGI in the test with NCI-H23 lung, in the test with MCF7 breast, with NCI-H226 lung, in the test on SK-MEL-2 melanoma, in the test on U251 CNS and in the test on ACHN renal was > 100 µM throughout. For the same compound, the TGI with IGROV1 ovarian was > 100 µM.
As to `CC(=O)CCNc1ccc(-c2cc(-c3ccc(N(C)C)cc3)nc3ccc4ccccc4c23)cc1`, the TGI with SNB-75 CNS, with SN12C renal, in the test on MDA-N, with NCI/ADR-RES ovarian, with SK-MEL-5 melanoma and in the test on A549 NSCLC was > 100 µM each time. Besides, the TGI is 84.4 µM in the test with HL-60(TB) leukemia; > 100 µM with HS 578T breast; > 100 µM in the test on BT-549 breast; > 100 µM in the test with SR leukemia; > 88.3 µM in the test on COLO 205 colon; > 100 µM in the test with EKVX NSCLC. Besides, the TGI in the test on NCI-H23 lung is > 100 µM; in the test on MCF7 breast, > 100 µM; in the test on NCI-H226 lung, > 78.9 µM; in the test on SK-MEL-2 melanoma, > 100 µM; in the test on U251 CNS, > 100 µM; with ACHN renal, > 100 µM. Further, the TGI in the test with HOP-62 NSCLC and in the test on IGROV1 ovarian was > 100 µM throughout.
In the case of `Cc1cccc(N=Nc2c(C)nn(C(=O)CC(=O)Nc3ccccc3)c2C)c1`, the TGI in the test on SNB-75 CNS, in the test on SN12C renal, with MDA-N, in the test on NCI/ADR-RES ovarian, in the test with SK-MEL-5 melanoma and in the test with A549 NSCLC was > 100 µM each time. Also, the TGI in the test with HL-60(TB) leukemia, with HS 578T breast, in the test with BT-549 breast, with SR leukemia, with COLO 205 colon and in the test with EKVX NSCLC was > 100 µM each time. Moreover, the TGI with NCI-H23 lung, in the test on MCF7 breast, with NCI-H226 lung, in the test on SK-MEL-2 melanoma, with U251 CNS and with ACHN renal was > 100 µM each time. For the same compound, the TGI in the test on HOP-62 NSCLC and in the test with IGROV1 ovarian was > 100 µM each time.
